We go through 17 compounds from patent US20260250250A1, “3-(SULPHONYL OR SULFONIMIDOYL)PROP-2-EN-1-YL]-2-OXO-1,2-DIHYDROPYRIDINE-3-CARBOXAMIDE DERIVATIVES” (Flinder Therapeutics B.V., priority 2022, published 2026).

Molecules are shown by their SMILES. Like-named read-outs stand apart in the source and are kept apart here. A value given as a limit tells only on which side of the number the result lay.

For assay [1], the target named is T1, human E3 ubiquitin-protein ligase RNF31 (HOIP) (Homo sapiens, UniProt Q96EP0).
T1 sequence (Q96EP0 695-1072 limits assumed): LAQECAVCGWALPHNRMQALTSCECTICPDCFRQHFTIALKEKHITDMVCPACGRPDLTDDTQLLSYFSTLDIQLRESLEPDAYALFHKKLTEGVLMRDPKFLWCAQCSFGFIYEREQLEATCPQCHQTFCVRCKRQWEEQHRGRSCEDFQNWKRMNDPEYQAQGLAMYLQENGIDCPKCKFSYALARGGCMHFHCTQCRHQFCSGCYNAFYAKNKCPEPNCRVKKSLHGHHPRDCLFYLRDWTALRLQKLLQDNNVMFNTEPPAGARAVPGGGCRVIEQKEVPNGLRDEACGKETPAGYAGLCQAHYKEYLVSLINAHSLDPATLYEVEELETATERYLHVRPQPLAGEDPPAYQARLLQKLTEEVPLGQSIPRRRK
Put plainly: Cell-free HTRF-based HOIP inhibition assay. Format: biochemical. In short, it runs like this:
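Recombinant human HOIP fragment (E. coli) preincubated with compounds (100-0.005 μM, 1% DMSO) and E1 for 1 h at 25° C. E2 and substrates then added; reaction 2.5 h at 25° C. HTRF read-out, excitation 337 nm, emissions 665/620 nm.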
For orientation: In TR-FRET formats the signal depends on donor and acceptor labels being close together.

Assay [2] deals with NF-κB signaling pathway. Put plainly: Cell-based dual luciferase NF-κB reporter assay (HEK293 cells, TNF stimulated). In short, it runs like this: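 HEK293 cells transfected with Firefly luciferase and NF-κB-response-element NanoLuc plasmids; compounds at 100–0.005 µM in 1% DMSO. Cells stimulated with 2.5 ng/mL TNF 30 min after compound addition. Firefly and NanoLuc activities read after 6 h by Nano-Glo dual-luciferase detection.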
In general terms: Reporter assays use an easily measured gene product as a stand-in for the process of interest.

Assay [3] has as its system bladder carcinoma RT4 cell line. Put plainly: TNF-α-induced cytotoxicity assay (CellTiter-Glo viability). Format: cell-based. In short, it runs like this: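 RT4 bladder carcinoma cells, 1000 per well, stimulated with 1.25 ng/mL TNFα together with compound for 72 h at 37° C., 5% CO2. Viability read by CellTiter-Glo luminescence, proportional to cellular ATP, as a measure of HOIP-dependent cytotoxicity.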
For orientation: ATP-based viability assays read luminescence as a measure of living cells.

A word on the IC50: it is the concentration needed to halve the response being measured. A low value points to greater potency. On to `Cc1ccc(S(=O)(=O)/C=C/CNC(=O)c2cc3c([nH]c2=O)CCCC3)cc1C` [Example 51, N-[(2E)-3-(3,4-dimethylbenzenesulfonyl)prop-2-en-1-yl]-2-oxo-1,2,5,6,7,8-hexahydroquinoline-3-carboxamide], for which the IC50 is at most 1000 nM in assay [1]; at most 1000 nM in assay [2] (Homo sapiens, HEK293); at most 1000 nM in assay [3] (Homo sapiens, RT-4, 72 h).
Consider `N=S(=O)(/C=C/CNC(=O)c1cc2c([nH]c1=O)CCCC2)c1ccccc1F` (stereo not drawn) [Example 132, N-[(2E)-3-[(2-fluorophenyl)(imino)oxo-λ^6-sulfanyl]prop-2-en-1-yl]-2-oxo-1,2,5,6,7,8-hexahydroquinoline-3-carboxamide], for which the IC50 is at most 1000 nM in assay [1]; at most 1000 nM in assay [2] (Homo sapiens, HEK293); at most 10000 nM in assay [3] (Homo sapiens, RT-4, 72 h).
Regarding `O=C(NC/C=C/S(=O)(=O)c1ccccc1)c1cc2c([nH]c1=O)CCN(C(=O)OC1CCC3(CC1)COC3)C2` [Example 79, 2-Oxaspiro[3.5]nonan-7-vi 3-{[(2E)-3-(benzenesulfonyl)prop-2-en-1-yl]carbamoyl}-2-oxo-1,2,5,6,7,8-hexahydro-1,6-naphthyridine-6-carboxylate], the IC50 was at most 100 nM in assay [1]; at most 10000 nM in assay [2] (Homo sapiens, HEK293); at most 10000 nM in assay [3] (Homo sapiens, RT-4, 72 h).
With `O=C(NC/C=C/S(=O)(=O)c1ccc(Cl)cc1)c1cc2c([nH]c1=O)CCN(C(=O)OCC1CC1(F)F)C2` (stereo not drawn) [Example 86, (2,2-difluorocyclopropyl)methyl 3-{[(2E)-3-(4-chlorobenzenesulfonyl)prop-2-en-1-yl]carbamoyl}-2-oxo-1,2,5,6,7,8-hexahydro-1,6-naphthyridine-6-carboxylate], the 50% inhibitory concentration (IC50) in assay [1] was at most 100 nM; in assay [2] (Homo sapiens, HEK293) it was at most 1000 nM; in assay [3] (Homo sapiens, RT-4, 72 h), at most 10000 nM.
The corresponding values for `O=C(NC/C=C/S(=O)(=O)c1ccc(Cl)cc1Cl)c1cc(-c2ccccc2)c[nH]c1=O` [Example 126, N-[(2E)-3-(2,4-dichlorobenzenesulfonyl)prop-2-en-1-yl]-2-oxo-5-phenyl-1,2-dihydropyridine-3-carboxamide] are at most 100 nM, at most 1000 nM and at most 10000 nM.
The matching figures for `O=C(NC/C=C/S(=O)(=O)c1ccccc1)c1cc2c([nH]c1=O)CCN(C(=O)OC1CCCCC1)C2` [Example 90, cyclohexyl 3-{[(2E)-3-(benzenesulfonyl)prop-2-en-1-yl]carbamoyl}-2-oxo-1,2,5,6,7,8-hexahydro-1,6-naphthyridine-6-carboxylate]: at most 100 nM, at most 1000 nM and at most 1000 nM.
The matching figures for `CO[C@H]1CC[C@H](C(=O)N2CCc3[nH]c(=O)c(C(=O)NC/C=C/S(=O)(=O)c4ccccc4)cc3C2)CC1` [Example 107, N-[(2E)-3-(benzenesulfonyl)prop-2-en-1-yl]-2-oxo-6-[(1r,4r)-4-methoxycyclohexanecarbonyl]-1,2,5,6,7,8-hexahydro-1,6-naphthyridine-3-carboxamide]: at most 1000 nM, at most 100000 nM and at most 100000 nM.
As to `COc1ccc(S(=N)(=O)/C=C/CNC(=O)c2cc3c([nH]c2=O)CCCC3)cc1OC` (stereo not drawn) [Example 52, N-[(2E)-3-[(3,4-dimethoxyphenyl)(imino)oxo-λ^6-sulfanyl]prop-2-en-1-yl]-2-oxo-1,2,5,6,7,8-hexahydroquinoline-3-carboxamide], the IC50 in assay [1] is at most 1000 nM; in assay [2] (Homo sapiens, HEK293) it was at most 10000 nM; in assay [3] (Homo sapiens, RT-4, 72 h) it was at most 1000 nM.
Take `O=C(NCC=CS(=O)(=O)c1ccccc1)c1cc2c([nH]c1=O)CCN(C(=O)OC1CCOC1)C2` [Example 82, (3R)-oxolan-3-vi 3-{[(2E)-3-(benzenesulfonyl)prop-2-en-1-yl]carbamoyl}-2-oxo-1,2,5,6,7,8-hexahydro-1,6-naphthyridine-6-carboxylate]: the 50% inhibitory concentration (IC50) in assay [1] (bin printed as 100 nM < IC50 ≤ 1.0 μM (lower bound in the cell to the left)) was at most 1000 nM; in assay [2] (HEK293, 2.5 ng/mL TNF, bin printed as 1.0 μM < IC50 ≤ 10 μM (lower bound in the cell to the left)), at most 10000 nM; in assay [3] (RT4, 1.25 ng/mL TNFα, 72 h, bin printed as 1.0 μM < IC50 ≤ 10 μM (lower bound in the cell to the left)) it was at most 10000 nM.
Take `CC(OC(=O)N1CCc2[nH]c(=O)c(C(=O)NC/C=C/S(=O)(=O)c3ccccc3)cc2C1)C(F)(F)F` (stereo not drawn) [Example 72, 1,1,1-trifluoropropan-2-yl 3-{[(2E)-3-(benzenesulfonyl)prop-2-en-1-yl]carbamoyl}-2-oxo-1,2,5,6,7,8-hexahydro-1,6-naphthyridine-6-carboxylate]: the IC50 in assay [1] was at most 1000 nM; in assay [2] (Homo sapiens, HEK293) it was at most 1000 nM; in assay [3] (Homo sapiens, RT-4, 72 h), at most 1000 nM.
Consider `O=C(NC/C=C/S(=O)(=O)c1ccc(Cl)cc1)c1cc2c([nH]c1=O)CCCCC2` [Example 36, N-[(2E)-3-(4-chlorobenzenesulfonyl)prop-2-en-1-yl]-2-oxo-1H,2H,5H,6H,7H,8H,9H-cyclohepta[b]pyridine-3-carboxamide], for which the IC50 is at most 1000 nM in assay [1]; at most 100000 nM in assay [2] (Homo sapiens, HEK293); at most 10000 nM in assay [3] (Homo sapiens, RT-4, 72 h).
The corresponding values for `O=C(NC/C=C\S(=O)(=O)c1ccccc1)c1cc2c([nH]c1=O)CCCC2` [Example 9, N-[(2Z)-3-(benzenesulfonyl)prop-2-en-1-yl]-2-oxo-1,2,5,6,7,8-hexahydroquinoline-3-carboxamide] are at most 1000 nM, at most 10000 nM and at most 10000 nM.
On to `O=C(NC/C=C/S(=O)(=O)c1ccc(F)cc1F)c1cc2c([nH]c1=O)CCCC2` [Example 31, N-[(2E)-3-(2,4-difluorobenzenesulfonyl)prop-2-en-1-yl]-2-oxo-1,2,5,6,7,8-hexahydroquinoline-3-carboxamide], for which the IC50 in assay [1] is at most 100 nM; in assay [2] (Homo sapiens, HEK293) it was at most 1000 nM; in assay [3] (Homo sapiens, RT-4, 72 h), at most 1000 nM.
On to `O=C(NC/C=C/S(=O)(=O)c1ccccc1)c1cc2c([nH]c1=O)CCN(C(=O)OCCN1CCCCC1=O)C2` [Example 83, 2-(2-Oxopiperidin-1-yl)ethyl 3-{[(2E)-3-(benzenesulfonyl)prop-2-en-1-yl]carbamoyl}-2-oxo-1,2,5,6,7,8-hexahydro-1,6-naphthyridine-6-carboxylate], for which the IC50 was at most 1000 nM in assay [1]; at most 100000 nM in assay [2] (Homo sapiens, HEK293); at most 100000 nM in assay [3] (Homo sapiens, RT-4, 72 h).
`COc1ccc(S(=N)(=O)/C=C/CNC(=O)c2cc3c([nH]c2=O)CCC(C(F)(F)F)C3)cc1F` (stereo not drawn) [Example 147, N-[(2E)-3-[(3-fluoro-4-methoxyphenyl)(imino)oxo-λ^6-sulfanyl]prop-2-en-1-yl]-2-oxo-6-(trifluoromethyl)-1,2,5,6,7,8-hexahydroquinoline-3-carboxamide]: the IC50 in assay [1] is at most 1000 nM; in assay [2] (Homo sapiens, HEK293) it was at most 10000 nM; in assay [3] (Homo sapiens, RT-4, 72 h), at most 10000 nM.
In the case of `O=C(NC/C=C/S(=O)(=O)c1ccc(Cl)cc1)c1cc2c([nH]c1=O)CCN(C(=O)NC1CC1)C2` [Example 101, N3-[(2E)-3-(4-chlorobenzenesulfonyl)prop-2-en-1-yl]-N6-cyclopropyl-2-oxo-1,2,5,6,7,8-hexahydro-1,6-naphthyridine-3,6-dicarboxamide], the half-maximal inhibitory concentration (IC50) in assay [1] was at most 1000 nM; in assay [2] (Homo sapiens, HEK293), at most 100000 nM; in assay [3] (Homo sapiens, RT-4, 72 h), at most 100000 nM.
On to `COc1ccc(S(=N)(=O)/C=C/CNC(=O)c2cc(-c3ccccc3)c[nH]c2=O)cc1F` (stereo not drawn) [Example 149, N-[(2E)-3-[(3-fluoro-4-methoxyphenyl)(imino)oxo-λ^6-sulfanyl]prop-2-en-1-yl]-2-oxo-5-phenyl-1,2-dihydropyridine-3-carboxamide], for which the IC50 is at most 1000 nM in assay [1]; at most 10000 nM in assay [2] (Homo sapiens, HEK293); at most 10000 nM in assay [3] (Homo sapiens, RT-4, 72 h).
